Assay results from patent publication US20250127753A1, “PHARMACEUTICAL APPLICATION OF DIMYRICETIN-YL-DISELENIDE IN TUMORS” (Shanghai Spark Pharmaceutical Co., Ltd., priority 2023, published 2025).

How the values were obtained:
PANC-1 = test: In vitro cell viability (CTG), PANC-1; assay type: cell-based, Human; settings: PANC-1 cells, 72 hours, CTG assay
Procedure: (§1) Collect cells in the exponential growth phase and count viable cells separately using a cell counter. Adjust the cell suspension to an appropriate concentration with the corresponding culture medium. Add 90 μL of the cell suspension to each well of a 96-well cell culture plate, with 3 replicate wells containing 5000 cells/well. Place the plate in an incubator at 37° C. with 5% CO2 overnight.
(§2) On the second day, add 10 μL of dimyricetin diselenide and cisplatin to the corresponding wells. The highest final concentration of dimyricetin diselenide is 300 μg/ml (i.e., 379 μM), and the highest final concentration of cisplatin is 300 μM. A total of 9 concentrations are prepared with a 3-fold dilution.
(§3) After 72 hours, detect cell viability using the CTG assay.
(§4) Using GraphPad Prism 8.0 software, an S-shaped dose-survival curve was plotted with log (inhibitor) as the x-axis and response as the y-axis, adopting the Variable slope (four parameters) model to calculate the IC50 value.

T24 = test: In vitro cell viability (CTG), T24; assay type: cell-based, Human; settings: T24 cells, 72 hours, CTG assay
Procedure: as §1, §2, §3, §4

EMT-6 = test: In vitro cell viability (CTG), EMT-6; assay type: cell-based, Mouse; settings: EMT-6 cells, 72 hours, CTG assay
Procedure: as §1, §2, §3, §4

MBT-2 = test: In vitro cell viability (CTG), MBT-2; assay type: cell-based, Mouse; settings: MBT-2 cells, 72 hours, CTG assay
Procedure: as §1, §2, §3, §4

Panc 02 = test: In vitro cell viability (CTG), Panc 02; assay type: cell-based, Mouse; settings: Pance 02 cells, 72 hours, CTG assay
Procedure: as §1, §2, §3, §4

B16-F10 = test: In vitro cell viability (CTG), B16-F10; assay type: cell-based, Mouse; settings: B16-F10 cells, 72 hours, CTG assay
Procedure: as §1, §2, §3, §4

LL/2(LLC1) = test: In vitro cell viability (CTG), LL/2(LLC1); assay type: cell-based, Mouse; settings: LL/2(LLC1) cells, 72 hours, CTG assay
Procedure: as §1, §2, §3, §4

Renca = test: In vitro cell viability (CTG), Renca; assay type: cell-based, Mouse; settings: Renca cells, 72 hours, CTG assay
Procedure: as §1, §2, §3, §4

MFC = test: In vitro cell viability (CTG), MFC; assay type: cell-based, Mouse; settings: MFC cells, 72 hours, CTG assay
Procedure: as §1, §2, §3, §4

tumor cells = test: In vitro cell experiment, overall statement on the tumor cell panel; assay type: cell-based; settings: 21 tumor cell lines, 72 hours, CTG assay
Procedure: as §1, §2, §3, §4

HCT116 = test: In vitro cell viability (CTG), HCT116; assay type: cell-based, Human; settings: HCT116 cells, 72 hours, CTG assay
Procedure: as §1, §2, §3, §4

CT-26.WT = test: In vitro cell viability (CTG), CT-26.WT; assay type: cell-based, Mouse; settings: CT-26.WT cells, 72 hours, CTG assay
Procedure: as §1, §2, §3, §4

[1] = tested on: H22 subcutaneous transplanted tumor; test: Pharmacodynamics of subcutaneous transplanted tumor in vivo (H22); design: species or system BALB/c mice
Procedure: • Animal species and strain: BALB/c mice • Drug administration history: None • Gender and age: Female, 6-7 weeks old • Breeder/supplier: Shanghai Jihui Laboratory Animal Breeding Co., Ltd. or other qualified suppliers • Experimental facility: Pengli Biology Animal Facility • Acclimation period: 3-7 days • Number of animals: 42 • Housing: SPF (Specific Pathogen Free) area • Indoor temperature: 20-26° C. • Indoor relative humidity: 40-70% • Lighting: Fluorescent lighting, 12 hours on (08:00-20:00) and 12 hours off • Animal housing: 2-6 mice per cage (same treatment group) • Food: Ad libitum access to irradiated feed (supplied by Jiangsu Xie Tong Pharmaceutical Bioengineering Co., Ltd., China) • Water: Ad libitum access to drinking water (tap water treated by reverse osmosis or autoclaving and acidified)
BALB/c mice were purchased from Shanghai Jihui Laboratory Animal Breeding Co., Ltd. for the H22 efficacy experiment. The animals were free of specific pathogens and arrived at Pengli Biology Animal Facility at approximately 5-6 weeks of age. The proposed animal handling procedures for the experimental protocol will be reviewed and approved by the IACUC (Institutional Animal Care and Use Committee) of Pengli Biology before the start of the experiment.
The H22 cell line used in this experiment was cultured in RPMI-1640 medium supplemented with 10% FBS in a CO2 incubator at 37° C. Prior to continuous culturing for ten passages, approximately 3×10^6 H22 cells were suspended in PBS and subcutaneously inoculated into each mouse at a volume of 100 μL. Mice were anesthetized with 3-4% isoflurane before inoculation.
When tumors grew to an average size of approximately 50-80 mm3, tumor-bearing mice were randomly divided into 4 groups of 8 mice each based on body weight and tumor size. The day of group assignment and drug administration was defined as Day 0. The grouping and dosing regimen are outlined in the table below.
Tumor Volume: Measure the tumor volume twice weekly after grouping for a consecutive 4 weeks. The calculation method for tumor volume (V) is as follows: V=(Length×Width^2)/2. The relative tumor volume (RTV) for each nude mouse is calculated as: RTV=Vt/V0, where Vt is the measured volume for each day and V0 is the volume at the start of treatment.
Relative Tumor Proliferation Rate (T/C %): Used to evaluate the antitumor activity of the drug. The relative tumor proliferation rate T/C (%) is calculated as the mean RTV of the treatment group (T) divided by the mean RTV of the negative control group (C), multiplied by 100%.
Tumor Growth Inhibition (TG1%): TG1%=(1−T/C)×100%, where T is the mean RTV of the treatment group and C is the mean RTV of the negative control group.

DU145 = test: In vitro cell viability (CTG), DU145; assay type: cell-based, Human; settings: DU145 cells, 72 hours, CTG assay
Procedure: as §1, §2, §3, §4

MKN45 = test: In vitro cell viability (CTG), MKN45; assay type: cell-based, Human; settings: MKN45 cells, 72 hours, CTG assay
Procedure: as §1, §2, §3, §4

H22 = test: In vitro cell viability (CTG), H22; assay type: cell-based, Mouse; settings: H22 cells, 72 hours, CTG assay
Procedure: as §1, §2, §3, §4

Hep G2 = test: In vitro cell viability (CTG), Hep G2; assay type: cell-based, Human; settings: Hep G2 cells, 72 hours, CTG assay
Procedure: as §1, §2, §3, §4

A375 = test: In vitro cell viability (CTG), A375; assay type: cell-based, Human; settings: A375 cells, 72 hours, CTG assay
Procedure: as §1, §2, §3, §4

HCC1954 = test: In vitro cell viability (CTG), HCC1954; assay type: cell-based, Human; settings: HCC1954 cells, 72 hours, CTG assay
Procedure: as §1, §2, §3, §4

RM-1 = test: In vitro cell viability (CTG), RM-1; assay type: cell-based, Mouse; settings: RM-1 cells, 72 hours, CTG assay
Procedure: as §1, §2, §3, §4

SK-OV-3 = test: In vitro cell viability (CTG), SK-OV-3; assay type: cell-based, Human; settings: SK-OV-3 cells, 72 hours, CTG assay
Procedure: as §1, §2, §3, §4

HCC827 = test: In vitro cell viability (CTG), HCC827; assay type: cell-based, Human; settings: HCC827 cells, 72 hours, CTG assay
Procedure: as §1, §2, §3, §4

786-O = test: In vitro cell viability (CTG), 786-O; assay type: cell-based, Human; settings: 786-O cells, 72 hours, CTG assay
Procedure: as §1, §2, §3, §4

Dimyricetin-yl-diselenide
IC50 (PANC-1): 10.3 µM | IC50 (T24): 7.69 µM | IC50 (EMT-6): 3.16 µM | IC50 (MBT-2): 10.8 µM | IC50 (Panc 02): 14.3 µM | IC50 (B16-F10): 13.1 µM | IC50 (LL/2(LLC1)): 14.6 µM | IC50 (Renca): 5.17 µM | IC50 (MFC): 9.55 µM | inhibitory effect on tumor cells in vitro (tumor cells): significant inhibitory effect | IC50 (HCT116): 5.52 µM | IC50 (CT-26.WT): 5.65 µM | tumor inhibition compared with the positive control (cisplatin) ([1]; 40 mg/kg dose group): better tumor inhibition than the positive control | TV (tumor volume) ([1]; G3, 40 mg/kg s.c. QD, 0 day (baseline)): 75.71 mm^3 | TGI (tumor growth inhibition) ([1]; G3, 40 mg/kg s.c. QD, 3 days): 9.88% | TV (tumor volume) ([1]; G3, 40 mg/kg s.c. QD, 3 days): 257.17 mm^3 | TGI (tumor growth inhibition) ([1]; G3, 40 mg/kg s.c. QD, 5 days): 5.58% | TV (tumor volume) ([1]; G3, 40 mg/kg s.c. QD, 5 days): 355.24 mm^3 | TGI (tumor growth inhibition) ([1]; G3, 40 mg/kg s.c. QD, 7 days): 34.02% | TV (tumor volume) ([1]; G3, 40 mg/kg s.c. QD, 7 days): 532.85 mm^3 | TGI (tumor growth inhibition) ([1]; G3, 40 mg/kg s.c. QD, 10 days): 41.86% | TV (tumor volume) ([1]; G3, 40 mg/kg s.c. QD, 10 days): 711.79 mm^3 | TGI (tumor growth inhibition) ([1]; G3, 40 mg/kg s.c. QD, 12 days): 38.64% | TV (tumor volume) ([1]; G3, 40 mg/kg s.c. QD, 12 days): 1066.44 mm^3 | TGI (tumor growth inhibition) ([1]; G3, 40 mg/kg s.c. QD, 14 days): 60.23% | TV (tumor volume) ([1]; G3, 40 mg/kg s.c. QD, 14 days): 1108.65 mm^3 | TV (tumor volume) ([1]; G4, 20 mg/kg s.c. QD, 0 day (baseline)): 75.31 mm^3 | TGI (tumor growth inhibition) ([1]; G4, 20 mg/kg s.c. QD, 3 days): 29.01% | TV (tumor volume) ([1]; G4, 20 mg/kg s.c. QD, 3 days): 218.25 mm^3 | TGI (tumor growth inhibition) ([1]; G4, 20 mg/kg s.c. QD, 5 days): 19.28% | TV (tumor volume) ([1]; G4, 20 mg/kg s.c. QD, 5 days): 314.27 mm^3 | TGI (tumor growth inhibition) ([1]; G4, 20 mg/kg s.c. QD, 7 days): 32.35% | TV (tumor volume) ([1]; G4, 20 mg/kg s.c. QD, 7 days): 544.04 mm^3 | TGI (tumor growth inhibition) ([1]; G4, 20 mg/kg s.c. QD, 10 days): 39.14% | TV (tumor volume) ([1]; G4, 20 mg/kg s.c. QD, 10 days): 741.18 mm^3 | TGI (tumor growth inhibition) ([1]; G4, 20 mg/kg s.c. QD, 12 days): 29.67% | TV (tumor volume) ([1]; G4, 20 mg/kg s.c. QD, 12 days): 1210.83 mm^3 | TGI (tumor growth inhibition) ([1]; G4, 20 mg/kg s.c. QD, 14 days): 43.53% | TV (tumor volume) ([1]; G4, 20 mg/kg s.c. QD, 14 days): 1542.11 mm^3 | inhibitory effect on the liver cancer tumor model in vivo ([1]; H22 model, 40 and 20 mg/kg s.c.): significant inhibitory effect | IC50 (DU145): 8.79 µM | IC50 (MKN45): 12 µM | IC50 (H22): 6.64 µM | IC50 (Hep G2): 12.6 µM | IC50 (A375): 5.2 µM | IC50 (HCC1954): 9.86 µM | IC50 (RM-1): 5.12 µM | IC50 (SK-OV-3): 6.52 µM | IC50 (HCC827): 10 µM | IC50 (786-O): 5.14 µM

N.N.[Cl][Pt][Cl] [Cisplatin, reference compound]
IC50 (PANC-1): 13.8 µM | IC50 (T24): 3.71 µM | IC50 (EMT-6): 6.58 µM | IC50 (MBT-2): 9.91 µM | IC50 (Panc 02): 9.86 µM | IC50 (B16-F10): 16.9 µM | IC50 (LL/2(LLC1)): 10.6 µM | IC50 (Renca): 6.03 µM | IC50 (MFC): 5.96 µM | IC50 (HCT116): 7.01 µM | IC50 (CT-26.WT): 7.48 µM | TV (tumor volume) ([1]; G2, 1 mg/kg i.v. BIW, 0 day (baseline)): 75.96 mm^3 | TGI (tumor growth inhibition) ([1]; G2, 1 mg/kg i.v. BIW, 3 days): −3.49% | TV (tumor volume) ([1]; G2, 1 mg/kg i.v. BIW, 3 days): 288.49 mm^3 | TGI (tumor growth inhibition) ([1]; G2, 1 mg/kg i.v. BIW, 5 days): 6.13% | TV (tumor volume) ([1]; G2, 1 mg/kg i.v. BIW, 5 days): 351.18 mm^3 | TGI (tumor growth inhibition) ([1]; G2, 1 mg/kg i.v. BIW, 7 days): 22.78% | TV (tumor volume) ([1]; G2, 1 mg/kg i.v. BIW, 7 days): 597.48 mm^3 | TGI (tumor growth inhibition) ([1]; G2, 1 mg/kg i.v. BIW, 10 days): 30.23% | TV (tumor volume) ([1]; G2, 1 mg/kg i.v. BIW, 10 days): 821.76 mm^3 | TGI (tumor growth inhibition) ([1]; G2, 1 mg/kg i.v. BIW, 12 days): 36.46% | TV (tumor volume) ([1]; G2, 1 mg/kg i.v. BIW, 12 days): 1081.49 mm^3 | TGI (tumor growth inhibition) ([1]; G2, 1 mg/kg i.v. BIW, 14 days): 39.56% | TV (tumor volume) ([1]; G2, 1 mg/kg i.v. BIW, 14 days): 1627.00 mm^3 | IC50 (DU145): 3.59 µM | IC50 (MKN45): 6.7 µM | IC50 (H22): 2.17 µM | IC50 (Hep G2): 8.49 µM | IC50 (A375): 5.36 µM | IC50 (HCC1954): 13.2 µM | IC50 (RM-1): 3.83 µM | IC50 (HCC827): 15.1 µM | IC50 (786-O): 3.68 µM
